Measured values as given in ChEMBL document CHEMBL5579901, “Discovery of Novel [1,2,4]Triazolo[1,5-a]pyrimidine Derivatives as Novel Potent S-Phase Kinase-Associated Protein 2 (SKP2) Inhibitors for the Treatment of Cancer” (J Med Chem, 2024).
Activity calls are given as the source filed them. The rule behind the calls is not given here.

Tests used:
PC-3 [1] = test: Induction of cell cycle arrest in human PC-3 cells assessed as cells at G2/M phase at 5 uM incubated for 36 hrs by PI staining based flow cytometry (reference value: 21.3%); type: functional
[2] = biological target: Cyclin-dependent kinases regulatory subunit 1/S-phase kinase-associated protein 2 (Homo sapiens) (UniProt P61024+Q13309); test: Inhibition of GST-tagged SKP2 (unknown origin) binding to His6-tagged CKS1 (unknown origin) incubated for 1 hr by pull down method; type: protein assay
PC-3 [3] = test: Inhibition of DNA synthesis in human PC-3 cells incubated for 24 hrs by EdU staining based fluorescence microscopic analysis; type: functional, cell-based
MGC-803 [4] = test: Induction of cell cycle arrest in human MGC-803 cells assessed as cells at S phase at 15 uM incubated for 12 hrs by PI staining based flow cytometry (reference value: 19.6%); type: functional
PC-3 [5] = test: Induction of cell cycle arrest in human PC-3 cells assessed as cells at S phase at 15 uM incubated for 12 hrs by PI staining based flow cytometry (reference value: 22.9%); type: functional
PC-3 [6] = test: Induction of cell cycle arrest in human PC-3 cells assessed as cells at S phase at 15 uM incubated for 48 hrs by PI staining based flow cytometry (reference value: 22.9%); type: functional
PC-3 [7] = test: Induction of cell cycle arrest in human PC-3 cells assessed as cells at G2/M phase at 15 uM incubated for 36 hrs by PI staining based flow cytometry (reference value: 21.3%); type: functional
MGC-803 [8] = test: Antitumor activity against human MGC-803 cells xenografted in NOD-SCID mouse assessed as tumor growth inhibition at 25 mg/kg, IG administered for 21 days; type: functional; settings: MGC-803, po, 504 h, time 21 day, read-out: TGI
PC-3 [9] = test: Induction of cell cycle arrest in human PC-3 cells assessed as cells at G0/G1 phase at 15 uM incubated for 24 hrs by PI staining based flow cytometry (reference value: 55.1%); type: functional
PC-3 [10] = test: Induction of cell cycle arrest in human PC-3 cells assessed as cells at G2/M phase at 15 uM incubated for 24 hrs by PI staining based flow cytometry (reference value: 21.4%); type: functional
MGC-803 [11] = test: Induction of cell cycle arrest in human MGC-803 cells assessed as cells at G2/M phase at 5 uM incubated for 36 hrs by PI staining based flow cytometry (reference value: 20.6%); type: functional
MGC-803 [12] = test: Induction of cell cycle arrest in human MGC-803 cells assessed as cells at S phase at 15 uM incubated for 48 hrs by PI staining based flow cytometry (reference value: 19.6%); type: functional
MGC-803 [13] = test: Induction of cell cycle arrest in human MGC-803 cells assessed as cells at G2/M phase at 15 uM incubated for 48 hrs by PI staining based flow cytometry (reference value: 20.8%); type: functional
[14] = AUClast in Sprague-Dawley rat at 1 mg/kg, iv measured upto 24 hrs by LC/MS-MS analysis; type: ADME, organism-based; settings: in vivo
MGC-803 [15] = test: Induction of cell cycle arrest in human MGC-803 cells assessed as cells at G0/G1 phase at 15 uM incubated for 48 hrs by PI staining based flow cytometry (reference value: 57.9%); type: functional
PC-3 [16] = test: Induction of cell cycle arrest in human PC-3 cells assessed as cells at S phase at 15 uM incubated for 24 hrs by PI staining based flow cytometry (reference value: 22.9%); type: functional
PC-3 [17] = test: Induction of cell cycle arrest in human PC-3 cells assessed as cells at G0/G1 phase at 15 uM incubated for 36 hrs by PI staining based flow cytometry (reference value: 54.5%); type: functional
MGC-803 [18] = test: Induction of cell cycle arrest in human MGC-803 cells assessed as cells at S phase at 5 uM incubated for 36 hrs by PI staining based flow cytometry (reference value: 18.2%); type: functional

Chain of Cyclin-dependent kinases regulatory subunit 1/S-phase kinase-associated protein 2 (Homo sapiens) (P61024 2-79 limits assumed): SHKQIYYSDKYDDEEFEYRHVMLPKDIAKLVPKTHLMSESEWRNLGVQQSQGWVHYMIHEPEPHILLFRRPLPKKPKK
Chain of Cyclin-dependent kinases regulatory subunit 1/S-phase kinase-associated protein 2 (Homo sapiens) (Q13309 whole entry partner): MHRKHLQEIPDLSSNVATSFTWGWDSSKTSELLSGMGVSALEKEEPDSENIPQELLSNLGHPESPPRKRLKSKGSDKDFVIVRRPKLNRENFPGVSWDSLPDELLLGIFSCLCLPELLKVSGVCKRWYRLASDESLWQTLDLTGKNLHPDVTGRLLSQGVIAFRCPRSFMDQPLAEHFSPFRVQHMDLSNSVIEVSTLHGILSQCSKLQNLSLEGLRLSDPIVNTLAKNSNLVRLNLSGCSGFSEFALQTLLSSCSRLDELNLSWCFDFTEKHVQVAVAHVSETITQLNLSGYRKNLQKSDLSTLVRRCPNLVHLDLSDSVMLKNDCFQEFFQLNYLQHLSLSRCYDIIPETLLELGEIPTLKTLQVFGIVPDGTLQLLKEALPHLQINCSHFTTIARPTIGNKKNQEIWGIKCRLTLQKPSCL

COc1ccc(-c2cc(C)nc3nc(SCc4ccc(Br)cc4)nn23)c(OC)c1
Activity (PC-3 [1]): 19.9% | inhibition [2]: Active | inhibition (PC-3 [3]): Dose-Dependent Effect | Activity (MGC-803 [4]): 31.2% | Activity (PC-3 [5]): 32.6% | Activity (PC-3 [6]): 39.8% | Activity (PC-3 [7]): 16.3% | inhibition in vivo at 25 mg/kg (MGC-803 [8]): 50.9% | Activity (PC-3 [9]): 39.3% | Activity (PC-3 [10]): 21.1% | Activity (MGC-803 [11]): 23.2% | Activity (MGC-803 [12]): 37.3% | Activity (MGC-803 [13]): 20.1% | AUC(0-t) at 24 h [14]: 699 ng·h/mL | Activity (MGC-803 [15]): 40.9% | Activity (PC-3 [16]): 38.6% | Activity (PC-3 [17]): 30.1% | Activity (MGC-803 [18]): 26.9%
